These results are taken from patent US9796711B2, “Substituted pyrazolo[3,4-b]pyridin-6-carboxylic acids and method of use” (AbbVie S.àr.l., priority 2015, dated 2017).

This experiment deals with T1, ΔF508-CFTR (Homo sapiens, UniProt P13569, DEL508-508).
T1 construct: host or cells: CFBE41o-, doxycycline-inducible
Description: CFTR cell surface levels using HRP-tagged ΔF508-CFTR expressing CFBE cells, in the presence of a co-corrector. The experiment is classed as cell-based. To be noted: HRP-tagged ΔF508-CFTR expressing CFBE cells, in the presence of 3 μM co-corrector; for EC50: read-out: EC50. In a few lines: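 Cells were seeded with 0.5 μg/mL doxycycline and held 68 h at 37 °C. Test compounds plus 3 μM co-corrector (final 0.1% DMSO) were then added for 20 h at 33 °C. Washed cells received HRP substrate, and luminescence was normalized between DMSO and 3 μM co-corrector controls.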

The structures appear in SMILES notation.

T1 sequence (P13569 with tags, fused parts or gaps DEL508-508): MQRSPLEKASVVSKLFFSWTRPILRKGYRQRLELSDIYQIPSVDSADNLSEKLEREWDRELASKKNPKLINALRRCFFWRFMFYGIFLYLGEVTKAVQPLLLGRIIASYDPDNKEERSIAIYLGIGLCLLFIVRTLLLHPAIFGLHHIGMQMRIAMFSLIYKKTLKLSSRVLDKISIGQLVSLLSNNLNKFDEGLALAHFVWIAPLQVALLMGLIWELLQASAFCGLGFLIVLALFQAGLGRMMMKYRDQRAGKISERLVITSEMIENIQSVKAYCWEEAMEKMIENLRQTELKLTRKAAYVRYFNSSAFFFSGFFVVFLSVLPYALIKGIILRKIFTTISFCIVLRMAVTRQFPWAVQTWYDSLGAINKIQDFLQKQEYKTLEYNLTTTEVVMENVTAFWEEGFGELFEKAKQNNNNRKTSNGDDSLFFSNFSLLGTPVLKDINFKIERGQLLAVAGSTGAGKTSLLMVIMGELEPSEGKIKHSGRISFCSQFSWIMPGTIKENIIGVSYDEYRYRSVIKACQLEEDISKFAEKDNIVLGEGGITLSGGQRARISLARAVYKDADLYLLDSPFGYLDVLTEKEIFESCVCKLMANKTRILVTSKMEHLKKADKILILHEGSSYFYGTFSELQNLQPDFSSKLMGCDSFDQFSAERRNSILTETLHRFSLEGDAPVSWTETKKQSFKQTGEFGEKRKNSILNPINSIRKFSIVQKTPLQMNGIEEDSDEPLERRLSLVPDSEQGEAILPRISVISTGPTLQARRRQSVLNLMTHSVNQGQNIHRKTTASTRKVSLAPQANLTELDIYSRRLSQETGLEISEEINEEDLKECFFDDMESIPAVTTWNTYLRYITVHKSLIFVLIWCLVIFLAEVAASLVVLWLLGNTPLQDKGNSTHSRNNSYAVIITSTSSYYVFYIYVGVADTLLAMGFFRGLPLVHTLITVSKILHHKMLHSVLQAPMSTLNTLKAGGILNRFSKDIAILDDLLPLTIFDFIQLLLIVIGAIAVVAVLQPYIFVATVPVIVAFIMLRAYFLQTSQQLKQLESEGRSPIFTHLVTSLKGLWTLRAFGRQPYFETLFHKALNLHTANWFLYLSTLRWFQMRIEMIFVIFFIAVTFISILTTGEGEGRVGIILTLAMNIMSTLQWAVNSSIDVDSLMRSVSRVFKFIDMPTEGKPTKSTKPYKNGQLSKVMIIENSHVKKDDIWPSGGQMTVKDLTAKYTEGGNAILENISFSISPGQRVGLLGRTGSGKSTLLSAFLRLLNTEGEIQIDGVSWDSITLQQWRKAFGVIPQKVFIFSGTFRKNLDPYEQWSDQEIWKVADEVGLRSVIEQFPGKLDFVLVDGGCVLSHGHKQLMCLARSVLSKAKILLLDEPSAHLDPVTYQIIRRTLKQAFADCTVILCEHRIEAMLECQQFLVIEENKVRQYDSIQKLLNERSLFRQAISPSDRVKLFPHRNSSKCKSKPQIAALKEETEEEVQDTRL

The EC50 is the concentration giving half of the maximal effect. In the case of `CCN(C1CCN(c2cc(C(=O)O)nc3c2c(C(C)C)nn3-c2ccc(F)cc2)CC1)C1COC1` [compound 750, 4-{4-[ethyl(oxetan-3-yl)amino]piperidin-1-yl}-1-(4-fluorophenyl)-3-(propan-2-yl)-1H-pyrazolo[3,4-b]pyridine-6-carboxylic acid], the “% Activation” value was 394.1% and the EC50 turned out to be 503 nM.
On the same counts, the results for `CC(C)c1nn(-c2ccc(F)cc2)c2nc(C(=O)O)cc(OCC3(C)COC3)c12` [compound 608, 1-(4-fluorophenyl)-4-[(3-methyloxetan-3-yl)methoxy]-3-(propan-2-yl)-1H-pyrazolo[3,4-b]pyridine-6-carboxylic acid] are 338.1% and 683 nM.
On the same counts, the results for `CC(C)c1nn(-c2ccc(F)cc2)c2nc(C(=O)O)cc(OCCCN(C)C)c12` [compound 606, 4-[3-(dimethylamino)propoxy]-1-(4-fluorophenyl)-3-(propan-2-yl)-1H-pyrazolo[3,4-b]pyridine-6-carboxylic acid] are 199.7% and 1770 nM.
Regarding `CC(C)c1nn(-c2ccc(F)cc2)c2nc(C(=O)O)cc(N3CC(N4CCC(N(C)C5COC5)CC4)C3)c12` [compound 758, 1-(4-fluorophenyl)-4-(3-{4-[methyl(oxetan-3-yl)amino]piperidin-1-yl}azetidin-1-yl)-3-(propan-2-yl)-1H-pyrazolo[3,4-b]pyridine-6-carboxylic acid], the “% Activation” value was 139.5% and the EC50 turned out to be 812 nM.
For `CN1CC(Oc2cc(C(=O)O)nc3c2c(C2CCC2)nn3-c2ccccc2)C1` [compound 601, 3-cyclobutyl-4-[(1-methylazetidin-3-yl)oxy]-1-phenyl-1H-pyrazolo[3,4-b]pyridine-6-carboxylic acid], the “% Activation” value is given as 173.6% and the EC50 is 2480 nM.
Taken in the same sequence, the figures for `CC(C)c1nn(-c2ccc(F)cc2)c2nc(C(=O)O)cc(N3CCC(N4CCN(C5COC5)CC4)CC3)c12` [compound 744, 1-(4-fluorophenyl)-4-{4-[4-(oxetan-3-yl)piperazin-1-yl]piperidin-1-yl}-3-(propan-2-yl)-1H-pyrazolo[3,4-b]pyridine-6-carboxylic acid] were 337.3% and 735 nM.
On the same counts, the results for `O=C(O)c1cc(-c2ccc(CN3CCOCC3)cc2)c2c(OC3CCC3)nn(C3CCCCC3)c2n1` [compound 808, 3-(cyclobutyloxy)-1-cyclohexyl-4-{4-[(morpholin-4-yl)methyl]phenyl}-1H-pyrazolo[3,4-b]pyridine-6-carboxylic acid] are 297% and 264 nM.
On the same counts, the results for `CN(CC1CCOCC1)c1cc(C(=O)O)nc2c1c(C1CCC1)nn2-c1ccccc1` [compound 554, 3-cyclobutyl-4-{methyl[(oxan-4-yl)methyl]amino}-1-phenyl-1H-pyrazolo[3,4-b]pyridine-6-carboxylic acid] are 365.83% and 1720 nM.
As for `O=C(O)c1cc(OC2CCC2)c2c(C3CCC3)nn(-c3ccccc3)c2n1` [compound 585, 3-cyclobutyl-4-(cyclobutyloxy)-1-phenyl-1H-pyrazolo[3,4-b]pyridine-6-carboxylic acid], the “% Activation” value came to 245.3% and the EC50 came to 2490 nM.
`O=C(O)c1cc(N2CCN(CCO)CC2)c2c(C3CCC3)nn(-c3ccccc3)c2n1` [compound 722, 3-cyclobutyl-4-[4-(2-hydroxyethyl)piperazin-1-yl]-1-phenyl-1H-pyrazolo[3,4-b]pyridine-6-carboxylic acid]: the “% Activation” value amounted to 247% and the EC50 was 1670 nM.
On the same counts, the results for `O=C(O)c1cc(N2CCC(CCCN3CCCC3)CC2)c2c(C3CCC3)nn(-c3ccccc3)c2n1` [compound 733, 3-cyclobutyl-1-phenyl-4-{4-[3-(pyrrolidin-1-yl)propyl]piperidin-1-yl}-1H-pyrazolo[3,4-b]pyridine-6-carboxylic acid] are 396.9% and 85.1 nM.
On the same counts, the results for `CC(C)c1nn(-c2ccc(F)cc2)c2nc(C(=O)O)cc(N3CCC(C)(N4CCN(C)CC4)CC3)c12` [compound 761, 1-(4-fluorophenyl)-4-[4-methyl-4-(4-methylpiperazin-1-yl)piperidin-1-yl]-3-(propan-2-yl)-1H-pyrazolo[3,4-b]pyridine-6-carboxylic acid] are 284% and 1670 nM.
Taken in the same sequence, the figures for `CC1(c2nn(-c3ccccc3)c3nc(C(=O)O)cc(-c4ccc(N5CCOCC5)cc4)c23)COC1` [compound 113, 3-(3-methyloxetan-3-yl)-4-[4-(morpholin-4-yl)phenyl]-1-phenyl-1H-pyrazolo[3,4-b]pyridine-6-carboxylic acid] were 277% and 1170 nM.
Take `O=C(O)c1cc(N2CC[C@@H](N3CCCCC3)C2)c2c(C3CCC3)nn(-c3ccccc3)c2n1` [compound 715, 3-cyclobutyl-1-phenyl-4-[(3R)-3-(piperidin-1-yl)pyrrolidin-1-yl]-1H-pyrazolo[3,4-b]pyridine-6-carboxylic acid]: the “% Activation” value stood at 261.4% and the EC50 worked out at 1270 nM.
Taken in the same sequence, the figures for `CC(C)(O)C1CCN(c2cc(C(=O)O)nc3c2c(C2CCC2)nn3-c2ccccc2)CC1` [compound 659, 3-cyclobutyl-4-[4-(2-hydroxypropan-2-yl)piperidin-1-yl]-1-phenyl-1H-pyrazolo[3,4-b]pyridine-6-carboxylic acid] were 424.5% and 69.5 nM.
Taken in the same sequence, the figures for `CC(=O)N1CCN(c2cc(C(=O)O)nc3c2c(C2CCC2)nn3-c2ccccc2)CC1` [compound 703, 4-(4-acetylpiperazin-1-yl)-3-cyclobutyl-1-phenyl-1H-pyrazolo[3,4-b]pyridine-6-carboxylic acid] were 374.6% and 386 nM.
Taken in the same sequence, the figures for `CC(C)c1nn(-c2ccc(F)cc2)c2nc(C(=O)O)cc(N3CCC(N(C)C)CC3)c12` [compound 660, 4-[4-(dimethylamino)piperidin-1-yl]-1-(4-fluorophenyl)-3-(propan-2-yl)-1H-pyrazolo[3,4-b]pyridine-6-carboxylic acid] were 284.47% and 3330 nM.
Consider `CC(C)c1nn(-c2ccc(F)cc2)c2nc(C(=O)O)cc(N3CCC(C4CCN(C5COC5)CC4)CC3)c12` [compound 752, 1-(4-fluorophenyl)-4-[1′-(oxetan-3-yl)[4,4′-bipiperidin]-1-yl]-3-(propan-2-yl)-1H-pyrazolo[3,4-b]pyridine-6-carboxylic acid], for which the “% Activation” value stood at 530.9% and the concentration giving a half-maximal response (EC50) is 104 nM.
Taken in the same sequence, the figures for `O=C(O)c1cc(N2CCCN(C3CCCC3)CC2)c2c(C3CCC3)nn(-c3ccccc3)c2n1` [compound 705, 3-cyclobutyl-4-(4-cyclopentyl-1,4-diazepan-1-yl)-1-phenyl-1H-pyrazolo[3,4-b]pyridine-6-carboxylic acid] were 249.8% and 1670 nM.
On the same counts, the results for `CC(C)c1nn(-c2ccc(F)cc2)c2nc(C(=O)O)cc(N3CCC(OCCN4CCCCC4)CC3)c12` [compound 762, 1-(4-fluorophenyl)-4-{4-[2-(piperidin-1-yl)ethoxy]piperidin-1-yl}-3-(propan-2-yl)-1H-pyrazolo[3,4-b]pyridine-6-carboxylic acid] are 442.6% and 462 nM.
On the same counts, the results for `O=C(O)c1cc(N2CCC[C@@H](O)C2)c2c(C3CCC3)nn(-c3ccccc3)c2n1` [compound 706, 3-cyclobutyl-4-[(3R)-3-hydroxypiperidin-1-yl]-1-phenyl-1H-pyrazolo[3,4-b]pyridine-6-carboxylic acid] are 284.4% and 488 nM.
As to `CC(C)N1CCCN(c2cc(C(=O)O)nc3c2c(C2CCC2)nn3-c2ccccc2)CC1` [compound 691, 3-cyclobutyl-1-phenyl-4-[4-(propan-2-yl)-1,4-diazepan-1-yl]-1H-pyrazolo[3,4-b]pyridine-6-carboxylic acid], the “% Activation” value is given as 280.7% and the EC50 turned out to be 5000 nM.
On the same counts, the results for `CN1CCN(C(=O)C2CCN(c3cc(C(=O)O)nc4c3c(C3CCC3)nn4-c3ccccc3)CC2)CC1` [compound 739, 3-cyclobutyl-4-[4-(4-methylpiperazine-1-carbonyl)piperidin-1-yl]-1-phenyl-1H-pyrazolo[3,4-b]pyridine-6-carboxylic acid] are 327.2% and 1670 nM.
Taken in the same sequence, the figures for `COCCOCC1(F)CCN(c2cc(C(=O)O)nc3c2c(C(C)C)nn3-c2ccc(F)cc2)CC1` [compound 667, 4-{4-fluoro-4-[(2-methoxyethoxy)methyl]piperidin-1-yl}-1-(4-fluorophenyl)-3-(propan-2-yl)-1H-pyrazolo[3,4-b]pyridine-6-carboxylic acid] were 339.85% and 462 nM.
Taken in the same sequence, the figures for `COCCCN1CCN(c2cc(C(=O)O)nc3c2c(C2CCC2)nn3-c2ccccc2)CC1` [compound 704, 3-cyclobutyl-4-[4-(3-methoxypropyl)piperazin-1-yl]-1-phenyl-1H-pyrazolo[3,4-b]pyridine-6-carboxylic acid] were 344.1% and 409 nM.
Turning to `CC(C)c1nn(-c2ccc(F)cc2)c2nc(C(=O)O)cc(N3CC[C@@H](O)[C@H](F)C3)c12` [compound 668, 4-[(3R,4R)-3-fluoro-4-hydroxypiperidin-1-yl]-1-(4-fluorophenyl)-3-(propan-2-yl)-1H-pyrazolo[3,4-b]pyridine-6-carboxylic acid], the “% Activation” value is recorded as 341.65% and the EC50 is 2360 nM.
For `CCCN1CCCN(c2cc(C(=O)O)nc3c2c(C2CCC2)nn3-c2ccccc2)CC1` [compound 712, 3-cyclobutyl-1-phenyl-4-(4-propyl-1,4-diazepan-1-yl)-1H-pyrazolo[3,4-b]pyridine-6-carboxylic acid], the “% Activation” value is 242.9% and the EC50 was 608 nM.
